Measured values reported in ChEMBL document CHEMBL4765285, “Discovery of orally active indirubin-3'-oxime derivatives as potent type 1 FLT3 inhibitors for acute myeloid leukemia” (Eur J Med Chem, 2020).
The source made the active and inactive calls. The calls are words filed in the database; no cut-off is given here.

Assays:
[1] = biological target: Cyclin-dependent kinase 1 (Homo sapiens) (UniProt P06493); assay: Inhibition of human CDK1 at 100 nM in presence of ATP relative to control
[2] = biological target: T1, Proto-oncogene tyrosine-protein kinase receptor Ret (Homo sapiens, UniProt P07949); assay: Inhibition of human RET in presence of ATP
[3] = biological target: T2, Proto-oncogene tyrosine-protein kinase Src (Homo sapiens, UniProt P12931); assay: Inhibition of human c-SRC at 100 nM in presence of ATP relative to control
[4] = biological target: T2, Proto-oncogene tyrosine-protein kinase Src; assay: Inhibition of human c-SRC in presence of ATP
[5] = AUClast in ICR mouse at 10 mg/kg, iv or po measured up to 1440 mins by LC-MS/MS analysis; assay type: ADME, organism-based; parameters: dose 10 mg/kg, time <=1440; conditions: in vivo
[6] = biological target: Tyrosine-protein kinase Mer (Homo sapiens) (UniProt Q12866); assay: Inhibition of human MER at 100 nM in presence of ATP relative to control
[7] = Cmax in ICR mouse at 10 mg/kg, iv or po measured up to 1440 mins by LC-MS/MS analysis; assay type: ADME, organism-based; parameters: dose 10 mg/kg, time <=1440; conditions: in vivo
[8] = Oral bioavailability in ICR mouse at 10 mg/kg measured up to 1440 mins by LC-MS/MS analysis; assay type: ADME, organism-based; conditions: in vivo
[9] = Acute toxicity in ICR mouse assessed as median lethal dose; conditions: in vivo
hERG (KCNH2) = hERG (KCNH2) (Homo sapiens, UniProt Q12809); assay: Inhibition of human ERG at 10 uM relative to control
[10] = Acute toxicity in ICR female mouse assessed as approximate lethal dose; conditions: in vivo
MOLM-14 = assay: cells; conditions: Homo sapiens
Description: Antiproliferative activity against human MOLM14 cells harboring ITD/F691L mutant assessed as cell growth inhibition by MTT assay

MDA-MB-231 = assay: cells; conditions: Homo sapiens, MDA-MB-231, read-out: INH
Description: Antiproliferative activity against human MDA-MB-231 cells assessed as cell growth inhibition at 1 uM by WST assay relative to control

[11] = biological target: T3, BDNF/NT-3 growth factors receptor (Homo sapiens, UniProt Q16620); assay: Inhibition of human TrkB in presence of ATP
Target sequence in this assay (Q16620 whole entry): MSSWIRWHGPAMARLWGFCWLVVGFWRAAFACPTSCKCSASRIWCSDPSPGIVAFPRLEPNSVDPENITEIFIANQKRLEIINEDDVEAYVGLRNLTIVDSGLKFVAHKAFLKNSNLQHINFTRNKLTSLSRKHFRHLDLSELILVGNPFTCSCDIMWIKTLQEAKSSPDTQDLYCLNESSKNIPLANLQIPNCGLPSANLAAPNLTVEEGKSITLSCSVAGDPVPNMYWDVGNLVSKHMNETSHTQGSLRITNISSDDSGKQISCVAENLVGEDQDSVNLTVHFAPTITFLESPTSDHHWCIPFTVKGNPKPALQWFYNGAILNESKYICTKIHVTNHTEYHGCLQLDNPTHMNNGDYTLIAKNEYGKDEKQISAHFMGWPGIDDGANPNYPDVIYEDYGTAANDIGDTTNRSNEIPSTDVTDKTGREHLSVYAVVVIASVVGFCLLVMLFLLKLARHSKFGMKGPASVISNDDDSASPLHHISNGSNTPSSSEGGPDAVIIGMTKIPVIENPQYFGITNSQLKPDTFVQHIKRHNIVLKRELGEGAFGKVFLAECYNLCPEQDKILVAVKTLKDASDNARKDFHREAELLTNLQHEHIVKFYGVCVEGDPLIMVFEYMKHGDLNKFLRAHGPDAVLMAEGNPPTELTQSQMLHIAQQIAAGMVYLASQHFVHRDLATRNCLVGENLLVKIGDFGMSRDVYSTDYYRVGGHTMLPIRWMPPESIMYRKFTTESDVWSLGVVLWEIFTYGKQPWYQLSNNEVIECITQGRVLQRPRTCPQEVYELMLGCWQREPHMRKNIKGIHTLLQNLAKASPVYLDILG

[12] = biological target: Cyclin-dependent kinase 2 (Homo sapiens) (UniProt P24941); assay: Inhibition of human CDK2 at 100 nM in presence of ATP relative to control
[13] = biological target: T4, Receptor-type tyrosine-protein kinase FLT3 (Homo sapiens, UniProt P36888)
T4 sequence (P36888 whole entry): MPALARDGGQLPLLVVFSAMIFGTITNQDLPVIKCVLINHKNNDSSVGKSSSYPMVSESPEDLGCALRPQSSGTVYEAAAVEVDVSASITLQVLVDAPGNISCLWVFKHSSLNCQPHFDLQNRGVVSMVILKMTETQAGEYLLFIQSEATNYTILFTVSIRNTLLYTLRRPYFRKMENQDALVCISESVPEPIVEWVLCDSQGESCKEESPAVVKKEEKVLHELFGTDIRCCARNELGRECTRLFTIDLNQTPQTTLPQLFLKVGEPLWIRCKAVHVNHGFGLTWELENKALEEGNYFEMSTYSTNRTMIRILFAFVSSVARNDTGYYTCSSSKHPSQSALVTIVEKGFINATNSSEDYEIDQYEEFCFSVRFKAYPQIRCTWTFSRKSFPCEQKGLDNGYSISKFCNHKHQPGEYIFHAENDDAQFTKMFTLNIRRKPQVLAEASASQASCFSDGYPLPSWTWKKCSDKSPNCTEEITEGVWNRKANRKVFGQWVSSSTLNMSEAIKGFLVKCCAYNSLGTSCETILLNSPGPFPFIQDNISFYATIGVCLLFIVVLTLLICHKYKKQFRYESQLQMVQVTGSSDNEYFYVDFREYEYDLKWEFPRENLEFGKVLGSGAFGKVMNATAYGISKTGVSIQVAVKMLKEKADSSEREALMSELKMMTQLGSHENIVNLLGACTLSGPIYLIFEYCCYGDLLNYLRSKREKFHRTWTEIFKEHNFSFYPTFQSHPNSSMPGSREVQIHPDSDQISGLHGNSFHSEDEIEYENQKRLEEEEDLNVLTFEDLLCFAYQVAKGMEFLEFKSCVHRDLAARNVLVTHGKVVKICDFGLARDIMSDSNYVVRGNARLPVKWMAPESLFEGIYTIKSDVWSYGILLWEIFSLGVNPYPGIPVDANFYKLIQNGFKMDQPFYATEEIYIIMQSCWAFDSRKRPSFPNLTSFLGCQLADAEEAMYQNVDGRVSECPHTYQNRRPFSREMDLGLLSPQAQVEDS
Description: Inhibition of recombinant His-tagged human FLT3 expressed in baculovirus expression system using peptide substrate incubated for 30 mins in presence of ATP by HTRF assay

HepG2 = assay: cells; conditions: Homo sapiens
Description: Antiproliferative activity against human HepG2 cells assessed as cell growth inhibition by WST assay

[14] = biological target: Receptor-type tyrosine-protein kinase FLT3 (Homo sapiens) (UniProt P36888); assay: Inhibition of FLT3 in human MV4-11 cells assessed as reduction in Erk1/2 phosphorylation at 0.01 to 1 uM incubated for 4 hrs by Western blot analysis; assay type: cell-based; conditions: dose 0.01-1 µM
[15] = biological target: T3, BDNF/NT-3 growth factors receptor; assay: Inhibition of human TrkB at 100 nM in presence of ATP relative to control
Target sequence in this assay (Q16620 32-822 limits assumed): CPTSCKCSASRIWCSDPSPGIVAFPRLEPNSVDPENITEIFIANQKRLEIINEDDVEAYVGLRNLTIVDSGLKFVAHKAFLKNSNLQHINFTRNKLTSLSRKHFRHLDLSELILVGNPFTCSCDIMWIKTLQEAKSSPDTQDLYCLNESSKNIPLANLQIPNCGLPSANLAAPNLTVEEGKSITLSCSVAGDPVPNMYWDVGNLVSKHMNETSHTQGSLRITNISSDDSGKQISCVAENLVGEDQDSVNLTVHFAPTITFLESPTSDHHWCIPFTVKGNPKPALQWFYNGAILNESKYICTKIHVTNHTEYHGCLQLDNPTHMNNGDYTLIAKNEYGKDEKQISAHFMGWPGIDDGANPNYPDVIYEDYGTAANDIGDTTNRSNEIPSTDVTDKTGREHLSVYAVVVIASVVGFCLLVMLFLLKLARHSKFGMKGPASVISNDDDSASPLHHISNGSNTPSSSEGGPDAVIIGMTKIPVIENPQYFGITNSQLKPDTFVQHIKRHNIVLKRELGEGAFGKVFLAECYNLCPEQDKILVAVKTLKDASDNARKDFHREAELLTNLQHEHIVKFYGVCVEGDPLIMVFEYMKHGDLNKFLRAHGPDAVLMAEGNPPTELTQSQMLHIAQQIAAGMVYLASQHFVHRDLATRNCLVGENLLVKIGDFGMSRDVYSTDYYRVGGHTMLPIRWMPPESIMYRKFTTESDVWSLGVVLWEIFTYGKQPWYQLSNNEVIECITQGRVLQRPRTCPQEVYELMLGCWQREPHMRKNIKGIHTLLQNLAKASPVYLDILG

K562 = assay: Antiproliferative activity against human K562 cells assessed as cell growth inhibition by WST assay; assay type: functional
[16] = biological target: Macrophage colony-stimulating factor 1 receptor (Homo sapiens, UniProt P07333); assay: Inhibition of human FMS at 100 nM in presence of ATP relative to control
[17] = Acute toxicity in ICR male mouse assessed as approximate lethal dose; conditions: in vivo, read-out: ALD50
[18] = Selectivity index, ratio of GI50 for human K562 cells to GI50 for human MV4-11 cells; assay type: functional
[19] = biological target: T1, Proto-oncogene tyrosine-protein kinase receptor Ret; assay: Inhibition of human RET at 100 nM in presence of ATP relative to control
[20] = biological target: Receptor-type tyrosine-protein kinase FLT3 (Homo sapiens, UniProt P36888, D835Y); assay: Inhibition of human FLT3 D835Y mutant in presence of ATP
[21] = biological target: T5, Vascular endothelial growth factor receptor 3 (Homo sapiens, UniProt P35916); assay: Inhibition of human FLT4 at 100 nM in presence of ATP relative to control
[22] = biological target: T5, Vascular endothelial growth factor receptor 3; assay: Inhibition of human FLT4 in presence of ATP
MV4-11 = assay: cells; conditions: Homo sapiens, MV4-11, 72 h
Description: Antiproliferative activity against human MV4-11 cells assessed as cell growth inhibition after 72 hrs by WST assay

[23] = biological target: Receptor-type tyrosine-protein kinase FLT3 (Homo sapiens) (UniProt P36888); assay: Inhibition of human FLT3 at 100 nM in presence of ATP relative to control
[24] = system: Receptor-type tyrosine-protein kinase FLT3 (Homo sapiens), P36888 [D835Y]; assay: Inhibition of human FLT3 D835Y mutant at 100 nM in presence of ATP relative to control
[25] = biological target: High affinity nerve growth factor receptor (Homo sapiens, UniProt P04629); assay: Inhibition of human TrkA at 100 nM in presence of ATP relative to control
[26] = biological target: Cyclin-dependent kinase 5 (Homo sapiens) (UniProt Q00535); assay: Inhibition of human CDK5 at 100 nM in presence of ATP relative to control
Sequence of Cyclin-dependent kinase 5 (Homo sapiens) (Q00535 whole entry, looked up): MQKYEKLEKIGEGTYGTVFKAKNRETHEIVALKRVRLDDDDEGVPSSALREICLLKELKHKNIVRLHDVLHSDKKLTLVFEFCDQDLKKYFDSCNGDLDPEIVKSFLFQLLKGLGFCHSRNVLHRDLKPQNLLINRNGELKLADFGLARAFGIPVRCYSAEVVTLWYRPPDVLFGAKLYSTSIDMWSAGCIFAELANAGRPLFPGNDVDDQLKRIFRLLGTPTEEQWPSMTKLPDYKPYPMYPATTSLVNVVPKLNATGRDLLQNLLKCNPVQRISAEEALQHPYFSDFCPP

T1 sequence (P07949 whole entry): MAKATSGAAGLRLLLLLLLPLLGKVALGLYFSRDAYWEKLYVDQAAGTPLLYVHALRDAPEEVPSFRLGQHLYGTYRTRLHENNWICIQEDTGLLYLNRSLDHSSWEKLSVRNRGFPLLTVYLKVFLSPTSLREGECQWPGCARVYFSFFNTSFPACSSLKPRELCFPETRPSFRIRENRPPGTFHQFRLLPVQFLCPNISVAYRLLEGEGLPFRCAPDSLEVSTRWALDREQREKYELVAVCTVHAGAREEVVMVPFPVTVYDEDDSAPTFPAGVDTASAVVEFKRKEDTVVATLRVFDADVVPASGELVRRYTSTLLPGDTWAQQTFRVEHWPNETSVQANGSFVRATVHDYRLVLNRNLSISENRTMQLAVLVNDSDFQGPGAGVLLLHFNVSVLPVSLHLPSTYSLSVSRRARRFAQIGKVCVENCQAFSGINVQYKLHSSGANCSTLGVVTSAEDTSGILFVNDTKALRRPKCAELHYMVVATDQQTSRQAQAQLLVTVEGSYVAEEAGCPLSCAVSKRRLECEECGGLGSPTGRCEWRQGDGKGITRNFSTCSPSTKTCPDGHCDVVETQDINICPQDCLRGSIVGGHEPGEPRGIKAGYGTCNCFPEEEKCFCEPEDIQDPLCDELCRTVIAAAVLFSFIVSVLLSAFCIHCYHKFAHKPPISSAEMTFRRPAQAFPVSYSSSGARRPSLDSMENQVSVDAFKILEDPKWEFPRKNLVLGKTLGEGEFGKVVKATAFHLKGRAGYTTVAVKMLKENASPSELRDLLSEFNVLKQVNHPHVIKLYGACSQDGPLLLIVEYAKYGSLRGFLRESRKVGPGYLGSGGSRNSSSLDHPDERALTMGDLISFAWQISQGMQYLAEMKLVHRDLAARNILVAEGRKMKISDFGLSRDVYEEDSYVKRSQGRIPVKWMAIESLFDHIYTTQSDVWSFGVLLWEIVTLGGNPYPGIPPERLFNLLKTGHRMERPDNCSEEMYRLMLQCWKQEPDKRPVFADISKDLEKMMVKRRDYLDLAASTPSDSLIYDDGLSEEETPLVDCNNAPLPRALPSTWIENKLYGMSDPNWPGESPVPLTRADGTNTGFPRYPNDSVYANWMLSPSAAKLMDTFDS
T5 sequence (P35916 whole entry): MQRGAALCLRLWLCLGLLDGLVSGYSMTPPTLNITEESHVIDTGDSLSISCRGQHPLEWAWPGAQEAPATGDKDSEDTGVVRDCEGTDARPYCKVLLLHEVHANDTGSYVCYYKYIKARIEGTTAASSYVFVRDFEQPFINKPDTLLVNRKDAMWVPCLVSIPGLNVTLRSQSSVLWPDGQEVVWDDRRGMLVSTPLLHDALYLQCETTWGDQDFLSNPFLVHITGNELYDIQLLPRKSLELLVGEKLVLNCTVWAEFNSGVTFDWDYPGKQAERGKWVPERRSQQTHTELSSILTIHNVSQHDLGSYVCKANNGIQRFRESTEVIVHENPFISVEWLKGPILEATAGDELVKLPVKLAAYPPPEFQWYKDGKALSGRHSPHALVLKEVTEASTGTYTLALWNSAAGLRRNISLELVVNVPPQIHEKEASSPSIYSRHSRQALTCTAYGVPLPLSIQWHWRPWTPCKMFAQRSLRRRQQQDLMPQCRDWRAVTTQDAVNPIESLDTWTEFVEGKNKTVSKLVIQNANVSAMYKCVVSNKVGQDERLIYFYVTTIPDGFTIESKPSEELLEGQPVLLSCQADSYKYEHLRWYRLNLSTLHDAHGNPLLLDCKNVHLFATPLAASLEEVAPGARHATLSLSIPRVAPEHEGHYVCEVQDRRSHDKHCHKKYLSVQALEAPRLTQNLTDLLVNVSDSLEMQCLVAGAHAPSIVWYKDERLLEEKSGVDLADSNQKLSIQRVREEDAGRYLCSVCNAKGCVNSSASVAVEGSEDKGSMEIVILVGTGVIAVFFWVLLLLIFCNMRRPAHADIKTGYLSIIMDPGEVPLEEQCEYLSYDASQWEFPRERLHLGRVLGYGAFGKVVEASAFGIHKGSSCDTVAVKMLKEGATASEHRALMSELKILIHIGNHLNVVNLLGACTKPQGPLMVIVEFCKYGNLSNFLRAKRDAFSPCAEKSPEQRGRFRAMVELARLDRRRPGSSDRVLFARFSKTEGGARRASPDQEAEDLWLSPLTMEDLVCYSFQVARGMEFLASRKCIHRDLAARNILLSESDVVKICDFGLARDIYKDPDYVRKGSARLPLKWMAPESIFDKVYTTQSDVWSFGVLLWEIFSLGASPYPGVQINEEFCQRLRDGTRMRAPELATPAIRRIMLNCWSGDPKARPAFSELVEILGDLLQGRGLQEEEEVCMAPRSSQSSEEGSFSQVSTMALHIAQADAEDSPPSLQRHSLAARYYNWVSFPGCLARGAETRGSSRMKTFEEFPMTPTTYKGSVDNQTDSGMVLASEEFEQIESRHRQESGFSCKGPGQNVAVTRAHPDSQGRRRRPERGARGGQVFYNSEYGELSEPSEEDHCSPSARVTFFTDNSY
T2 sequence (P12931 2-536 limits assumed): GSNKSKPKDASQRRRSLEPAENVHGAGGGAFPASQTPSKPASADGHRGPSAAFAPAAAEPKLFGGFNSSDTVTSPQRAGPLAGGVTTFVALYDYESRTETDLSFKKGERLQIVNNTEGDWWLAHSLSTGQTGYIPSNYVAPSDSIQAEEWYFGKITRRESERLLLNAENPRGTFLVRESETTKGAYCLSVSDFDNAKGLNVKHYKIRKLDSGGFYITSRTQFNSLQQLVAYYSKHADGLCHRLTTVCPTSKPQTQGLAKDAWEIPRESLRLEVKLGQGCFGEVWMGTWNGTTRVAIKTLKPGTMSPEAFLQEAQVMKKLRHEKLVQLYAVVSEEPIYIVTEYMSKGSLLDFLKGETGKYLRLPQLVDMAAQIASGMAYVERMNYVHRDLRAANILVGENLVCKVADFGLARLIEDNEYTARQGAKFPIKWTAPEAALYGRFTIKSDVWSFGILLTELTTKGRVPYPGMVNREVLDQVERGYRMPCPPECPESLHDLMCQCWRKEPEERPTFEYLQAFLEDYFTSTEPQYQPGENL

Cl.O=C1Nc2ccc(F)cc2/C1=C1/Nc2ccccc2/C1=N\OCCN1CCNCC1
inhibition [1]: 21%
IC50 [2]: 1.21 nM
inhibition [3]: 87%
IC50 [4]: 9.52 nM
AUC(0-t) at 24 h [5]: 417 ng·h/mL
inhibition [6]: 100%
Cmax [7]: 36.5 ng/mL
bioavailability [8]: 42.6%
LD50 [9]: 4950 mg/kg
inhibition at 10 µM (hERG (KCNH2)): 21.4%
ALD50 [10]: 2000 mg/kg
GI50 (MOLM-14): 3.27 nM
inhibition at 1 µM (MDA-MB-231): 8.95%
IC50 [11]: 2.04 nM
inhibition [12]: 43%
IC50 [13]: 0.87 nM
GI50 (HepG2): 1100 nM
inhibition [14]: Active
inhibition [15]: 100%
GI50 (K562): 437 nM
inhibition [16]: 92%
LD50 [17]: 2000 mg/kg
RatioGI50 [18]: 430
inhibition [19]: 98%
IC50 [20]: 0.32 nM
inhibition [21]: 89%
IC50 [22]: 23.8 nM
GI50 (MV4-11): 1 nM
inhibition [23]: 98%
inhibition [24]: 99%
inhibition [25]: 99%
inhibition [26]: 54%
